Test results as given in patent US20010011082A1, “Parenteral bisphosphonate composition with improved local tolerance” (priority 2000, published 2001).

Assays:
[1] = Local tolerance test: s.c. injection of bisphosphonate solution pH 7.4 with and without chelating agent, swelling score and diameter of subcutaneous lesions at necropsy; conditions: for adverse local reaction at the application sites: additional bivalent cation chelator in bisphosphonate formulation, compared with corresponding formulation without chelator; for severity of subcutaneous findings at necropsy / intensity and duration of local swelling at the injection site: chelating agent in injectable formulations of alendronate or ibandronate; for severity of subcutaneous findings at necropsy: necropsy after 9 days; for intensity and duration of local swelling at the injection site: observed over 9 days
Protocol: (§1) Groups of 3 rats were treated with test formulations containing 1 mg ibandronate/ml physiological saline buffered at pH 7.4. One group of rats received the test formulation without any additional additive, another group received the test solution with 1 mg EDTA/ml as an additive. The back of the rat was shaved one day before treatment. A volume of 0.5 ml each was injected subcutaneously at three different sites of the right part of shaved back. The left side of the back was treated with the corresponding formulation without ibandronate (placebo). Local reactions were assessed by a scoring system for swelling: 0=no reaction, 0.5=barely perceptible swelling, 1=slight swelling, 2=moderate swelling, 3=marked swelling, 4=severe swelling. The animals were observed over 9 days and thereafter necropsied. At necropsy, the diameter of subcutaneous lesions, mainly consisting of reddening or swelling, was measured.
(§2) The same study design as described in example 1 was applied to examine the concentration dependence of the EDTA effect. EDTA was added at concentrations of 0.1, 1.0 and 10 mg/ml.
(§3) DTPA was added at a concentration of 10 mg/ml.
(§4) The same study design as described in example 1 was applied to examine the efficacy of EDTA on local reaction to s.c. injected alendronate. The test formulations contained 3 mg alendronate/ml physiological saline buffered at pH 7.4. EDTA was added at a concentration of 10 mg/ml.

[2] = rat, in vivo, pH 7.4
Protocol: as §1, §2, §3, §4

| SMILES | efficacy of DTPA as chelating agent on local reaction ([1]; 1 mg ibandronate/ml pH 7.4, DTPA 10 mg/ml, s.c.) | adverse local reaction at the application sites [1] | severity of subcutaneous findings at necropsy ([1]; s.c.) | intensity and duration of local swelling at the injection site ([1]; s.c.) | improving effect of EDTA on local tolerance (dose dependence) [2] | effect on local adverse reactions at lowest ratio ([1]; 1 mg ibandronate/ml pH 7.4, molar ibandronate to EDTA ratio 1:0.1 (EDTA 0.1 mg/ml)) | local adverse reactions at highest ratio ([1]; 1 mg ibandronate/ml pH 7.4, molar ibandronate to EDTA ratio 1:10 (EDTA 10 mg/ml)) | effect of EDTA on alendronate induced local reaction ([1]; 3 mg alendronate/ml physiological saline pH 7.4, EDTA 10 mg/ml, s.c.) |
| --- | --- | --- | --- | --- | --- | --- | --- | --- |
| O=C(O)CN(CCN(CC(=O)O)CC(=O)O)CCN(CC(=O)O)CC(=O)O [DTPA, diethylenetriaminepentaacetic acid] | could also be demonstrated | substantially improved | reduces | reduces |  |  |  |  |
| O=C(O)CN(CCN(CC(=O)O)CC(=O)O)CC(=O)O [EDTA, ethylenediaminetetraacetic acid] |  | substantially improved | reduces | reduces | dose-related | still some beneficial effect | still not completely abolished | could also be demonstrated |
